Reference: PubChem BioAssay AID1963435 (Molecular Pharmacology Branch, DTP, NCI, 2024)

Test system: PANC-1 complex spheroid growth, percent test/control
Test: Anticancer human tumor PANC-1 cell line growth inhibition [Asc];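 further: spheroids exposed to agents for 7 days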;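 on viability, T/C: percent viability relative to DMSO vehicle wells taken as 100%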
Conditions: for IC50: curve of first compound; for viability, T/C: stronger effect = lower value
How it was run: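 Complex spheroids combining tumor cells with HUVEC endothelial cells and human MSCs, at 37 degrees C, 5% CO2; agents tested alone or combined, half-log dilutions from at or near clinical Cmax, or 10 microM if Cmax unknown.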

Compound: NC(=O)C(=Cn1cnc(-c2cc(C(F)(F)F)cc(C(F)(F)F)c2)n1)c1cncnc1 + CCN1C(C(=O)NC23CCC(C(=O)O)(CC2)CC3)C(c2cccc(Cl)c2F)C2(C(=O)Nc3cc(Cl)ccc32)C12CCCCC2
- IC50 (second compound 0.00949 µM): > 300 nM
- IC50 (second compound 0.03 µM): > 300 nM
- IC50 (second compound 0.0949 µM): > 300 nM
- IC50 (second compound 0.3 µM): > 300 nM
- IC50 (second compound 0.949 µM): > 300 nM
- IC50 (second compound 3 µM): > 300 nM
- viability, T/C (second compound 0.00949 µM, first compound 0.000949 µM): 101%
- viability, T/C (second compound 0.00949 µM, first compound 0.003 µM): 90.1%
- viability, T/C (second compound 0.00949 µM, first compound 0.00949 µM): 90%
- viability, T/C (second compound 0.00949 µM, first compound 0.03 µM): 104%
- viability, T/C (second compound 0.00949 µM, first compound 0.0949 µM): 114%
- viability, T/C (second compound 0.00949 µM, first compound 0.3 µM): 92.2%
- viability, T/C (second compound 0.03 µM, first compound 0.000949 µM): 95.6%
- viability, T/C (second compound 0.03 µM, first compound 0.003 µM): 95.5%
- viability, T/C (second compound 0.03 µM, first compound 0.00949 µM): 98.6%
- viability, T/C (second compound 0.03 µM, first compound 0.03 µM): 91.3%
- viability, T/C (second compound 0.03 µM, first compound 0.0949 µM): 115%
- viability, T/C (second compound 0.03 µM, first compound 0.3 µM): 104%
- viability, T/C (second compound 0.0949 µM, first compound 0.000949 µM): 89.6%
- viability, T/C (second compound 0.0949 µM, first compound 0.003 µM): 101%
- viability, T/C (second compound 0.0949 µM, first compound 0.00949 µM): 90.1%
- viability, T/C (second compound 0.0949 µM, first compound 0.03 µM): 92.4%
- viability, T/C (second compound 0.0949 µM, first compound 0.0949 µM): 117%
- viability, T/C (second compound 0.0949 µM, first compound 0.3 µM): 99.5%
- viability, T/C (second compound 0.3 µM, first compound 0.000949 µM): 100%
- viability, T/C (second compound 0.3 µM, first compound 0.003 µM): 89.6%
- viability, T/C (second compound 0.3 µM, first compound 0.00949 µM): 89.1%
- viability, T/C (second compound 0.3 µM, first compound 0.03 µM): 103%
- viability, T/C (second compound 0.3 µM, first compound 0.0949 µM): 117%
- viability, T/C (second compound 0.3 µM, first compound 0.3 µM): 93.8%
- viability, T/C (second compound 0.949 µM, first compound 0.000949 µM): 97.5%
- viability, T/C (second compound 0.949 µM, first compound 0.003 µM): 100%
- viability, T/C (second compound 0.949 µM, first compound 0.00949 µM): 105%
- viability, T/C (second compound 0.949 µM, first compound 0.03 µM): 99.3%
- viability, T/C (second compound 0.949 µM, first compound 0.0949 µM): 125%
- viability, T/C (second compound 0.949 µM, first compound 0.3 µM): 97.7%
- viability, T/C (second compound 3 µM, first compound 0.000949 µM): 120%
- viability, T/C (second compound 3 µM, first compound 0.003 µM): 107%
- viability, T/C (second compound 3 µM, first compound 0.00949 µM): 113%
- viability, T/C (second compound 3 µM, first compound 0.03 µM): 112%
- viability, T/C (second compound 3 µM, first compound 0.0949 µM): 121%
- viability, T/C (second compound 3 µM, first compound 0.3 µM): 96.6%

Compound: NC1CCC(NC2CC2c2ccccc2)CC1 (centres undefined) + CCN1C(C(=O)NC23CCC(C(=O)O)(CC2)CC3)C(c2cccc(Cl)c2F)C2(C(=O)Nc3cc(Cl)ccc32)C12CCCCC2
- IC50 (second compound 0.00949 µM): > 100 nM
- IC50 (second compound 0.03 µM): > 100 nM
- IC50 (second compound 0.0949 µM): > 100 nM
- IC50 (second compound 0.3 µM): > 100 nM
- IC50 (second compound 0.949 µM): > 100 nM
- IC50 (second compound 3 µM): > 100 nM
- viability, T/C (second compound 0.00949 µM, first compound 0.000316 µM): 97.6%
- viability, T/C (second compound 0.00949 µM, first compound 0.001 µM): 89%
- viability, T/C (second compound 0.00949 µM, first compound 0.00316 µM): 97.2%
- viability, T/C (second compound 0.00949 µM, first compound 0.01 µM): 85.9%
- viability, T/C (second compound 0.00949 µM, first compound 0.0316 µM): 82%
- viability, T/C (second compound 0.00949 µM, first compound 0.1 µM): 104%
- viability, T/C (second compound 0.03 µM, first compound 0.000316 µM): 84.6%
- viability, T/C (second compound 0.03 µM, first compound 0.001 µM): 90.1%
- viability, T/C (second compound 0.03 µM, first compound 0.00316 µM): 103%
- viability, T/C (second compound 0.03 µM, first compound 0.01 µM): 87%
- viability, T/C (second compound 0.03 µM, first compound 0.0316 µM): 91.2%
- viability, T/C (second compound 0.03 µM, first compound 0.1 µM): 90.1%
- viability, T/C (second compound 0.0949 µM, first compound 0.000316 µM): 99.7%
- viability, T/C (second compound 0.0949 µM, first compound 0.001 µM): 94.7%
- viability, T/C (second compound 0.0949 µM, first compound 0.00316 µM): 93.5%
- viability, T/C (second compound 0.0949 µM, first compound 0.01 µM): 95.5%
- viability, T/C (second compound 0.0949 µM, first compound 0.0316 µM): 97.7%
- viability, T/C (second compound 0.0949 µM, first compound 0.1 µM): 95.4%
- viability, T/C (second compound 0.3 µM, first compound 0.000316 µM): 96.7%
- viability, T/C (second compound 0.3 µM, first compound 0.001 µM): 101%
- viability, T/C (second compound 0.3 µM, first compound 0.00316 µM): 102%
- viability, T/C (second compound 0.3 µM, first compound 0.01 µM): 98.2%
- viability, T/C (second compound 0.3 µM, first compound 0.0316 µM): 102%
- viability, T/C (second compound 0.3 µM, first compound 0.1 µM): 91%
- viability, T/C (second compound 0.949 µM, first compound 0.000316 µM): 109%
- viability, T/C (second compound 0.949 µM, first compound 0.001 µM): 115%
- viability, T/C (second compound 0.949 µM, first compound 0.00316 µM): 104%
- viability, T/C (second compound 0.949 µM, first compound 0.01 µM): 107%
- viability, T/C (second compound 0.949 µM, first compound 0.0316 µM): 97.2%
- viability, T/C (second compound 0.949 µM, first compound 0.1 µM): 89.2%
- viability, T/C (second compound 3 µM, first compound 0.000316 µM): 109%
- viability, T/C (second compound 3 µM, first compound 0.001 µM): 112%
- viability, T/C (second compound 3 µM, first compound 0.00316 µM): 101%
- viability, T/C (second compound 3 µM, first compound 0.01 µM): 110%
- viability, T/C (second compound 3 µM, first compound 0.0316 µM): 95.6%
- viability, T/C (second compound 3 µM, first compound 0.1 µM): 110%
